Assay results published in patent US20260308159A1, “BICYCLIC HETEROARYLAMIDES HAVING GPR68 MODULATING ACTIVITY” (RECURSION PHARMACEUTICALS, INC., priority 2023, published 2026).

The molecules below were run against T1, human GPR68 (Homo sapiens, UniProt Q15743) (assay: GPR68 Biochemical Assay (Promega GloSensor cAMP assay, GPR68 antagonism)). Conditions: HEK293T cells transiently expressing hGPR68, antagonism of pH 5.5 stimulated cAMP, 15 min, read-out: hGPR68 IC50.
T1 construct: encoding full-length human GPR68 (uniprot ID: Q15743); expressed in transfected cells; host or cells: HEK293T
T1 sequence (Q15743 whole entry): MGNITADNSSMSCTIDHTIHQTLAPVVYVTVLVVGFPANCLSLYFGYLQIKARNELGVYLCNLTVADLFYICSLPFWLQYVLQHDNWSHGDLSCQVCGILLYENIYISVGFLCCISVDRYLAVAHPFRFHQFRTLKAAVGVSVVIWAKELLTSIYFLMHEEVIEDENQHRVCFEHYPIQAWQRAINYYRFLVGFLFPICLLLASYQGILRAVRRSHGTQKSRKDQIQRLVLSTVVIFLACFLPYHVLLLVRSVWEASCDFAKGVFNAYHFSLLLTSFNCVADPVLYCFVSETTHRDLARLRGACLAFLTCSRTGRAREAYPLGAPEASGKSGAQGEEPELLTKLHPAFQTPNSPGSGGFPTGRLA
Type: cell-based
How it was run: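 HEK293T cells transiently co-transfected with full-length human GPR68 and GloSensor plasmids, preloaded 60 min with GloSensor substrate in pH 8.0 buffer. Compounds (9-point half-log series, top 50 μM final, 0.5% DMSO) added with pH 5.5 buffer (~EC80-90 stimulation); luminescence read after 15 min at room temperature. IC50 from sigmoidal fit of % inhibition.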

| Structure (SMILES) | IC50 |
| --- | --- |
| COCc1nn2c(C(=O)NC3CCc4ncsc4C3)ccnc2c1C(N)=O (stereo not drawn) [Compound 190, 2-(methoxymethyl)-N7-(4,5,6,7-tetrahydro-1,3-benzothiazol-6-yl)pyrazolo[1,5-a]pyrimidine-3,7-dicarboxamide] | 50 to 500 nM |
| COCc1nn2c(C(=O)N[C@@H]3COc4c3ccc(F)c4F)ccnc2c1C(N)=O [Compound 238, N7-[(3S)-6,7-difluoro-2,3-dihydrobenzofuran-3-yl]-2-(methoxymethyl)pyrazolo[1,5-a]pyrimidine-3,7-dicarboxamide] | < 50 nM |
| COCc1nn2c(C(=O)NC3CS(=O)(=O)c4ccccc43)ccnc2c1C(N)=O (stereo not drawn) [Compound 168, N7-(1,1-dioxo-2,3-dihydrobenzothiophen-3-yl)-2-(methoxymethyl)pyrazolo[1,5-a]pyrimidine-3,7-dicarboxamide] | < 50 nM |
| COCc1nc2c(C(=O)NC3CCC(F)(F)CC3)ncnn2c1C(N)=O [Compound 212, N4-(4,4-difluorocyclohexyl)-6-(methoxymethyl)imidazo[2,1-f][1,2,4]triazine-4,7-dicarboxamide] | 50 to 500 nM |
| COCc1nc2c(C(=O)N[C@H]3CCS(=O)(=O)c4ccccc43)ccnn2c1C(N)=O [Compound 220, 2-(methoxymethyl)-N8-[(4S)-1,1-dioxo-3,4-dihydro-2H-thiochromen-4-yl]imidazo[1,2-b]pyridazine-3,8-dicarboxamide] | 50 to 500 nM |
| COCc1nn2c(C(=O)Nc3cc4ccccc4n3C)ccnc2c1C(N)=O [Compound 118, 2-(methoxymethyl)-N7-(1-methylindol-2-yl)pyrazolo[1,5-a]pyrimidine-3,7-dicarboxamide] | < 50 nM |
| COCc1nn2c(C(=O)NC3CS(=O)(=O)C3)ccnc2c1C(N)=O [Compound 225, N7-(1,1-dioxothietan-3-yl)-2-(methoxymethyl)pyrazolo[1,5-a]pyrimidine-3,7-dicarboxamide] | < 50 nM |
| CNc1nn2c(C(=O)NC3Cc4ccccc4C3)ccnc2c1C(N)=O [Compound 159, N7-indan-2-yl-2-(methylamino)pyrazolo[1,5-a]pyrimidine-3,7-dicarboxamide] | < 50 nM |
| COCc1nn2c(C(=O)N[C@H]3CCc4ccccc4C3)ccnc2c1C(N)=O [Compound 79, 2-(methoxymethyl)-N7-[(2S)-tetralin-2-yl]pyrazolo[1,5-a]pyrimidine-3,7-dicarboxamide] | < 50 nM |
| COCc1nn2c(C(=O)N[C@H]3COc4cc(F)ccc43)ccnc2c1C(N)=O [Compound 128, 2-(methoxymethyl)-N7-[(3R)-6-fluoro-2,3-dihydrobenzofuran-3-yl]pyrazolo[1,5-a]pyrimidine-3,7-dicarboxamide] | < 50 nM |
| COCc1nn2c(C(=O)N[C@@H]3Cc4ccccc4[C@@H]3C)ccnc2c1C(N)=O [Compound 201] | < 50 nM |
| CC(C)c1nn2c(C(=O)NC3CCS(=O)(=O)c4ccccc43)ccnc2c1C(N)=O (stereo not drawn) [Compound 230, N7-(1,1-dioxo-3,4-dihydro-2H-thiochromen-4-yl)-2-isopropyl-pyrazolo[1,5-a]pyrimidine-3,7-dicarboxamide] | < 50 nM |
| COCc1nn2c(C(=O)NCc3cccc(F)c3)ccnc2c1C(N)=O [Compound 71, N7-[(3-fluorophenyl)methyl]-2-(methoxymethyl)pyrazolo[1,5-a]pyrimidine-3,7-dicarboxamide] | 50 to 500 nM |
| CCC1(CC)CC(NC(=O)c2ccnc3c(C(N)=O)cnn23)C1 [Compound 10, N7-(3,3-diethylcyclobutyl)pyrazolo[1,5-a]pyrimidine-3,7-dicarboxamide] | 50000 to 100000 nM |
| COCc1nn2c(C(=O)Nc3cnc4c(F)cccc4c3)ccnc2c1C(N)=O [Compound 117, N7-(8-fluoro-3-quinolyl)-2-(methoxymethyl)pyrazolo[1,5-a]pyrimidine-3,7-dicarboxamide] | < 50 nM |
| N#C[C@H]1C[C@@H](NC(=O)c2ccnc3c(C(N)=O)cnn23)C1 [Compound 9, N7-(cis-3-cyanocyclobutyl)pyrazolo[1,5-a]pyrimidine-3,7-dicarboxamide] | 500 to 5000 nM |
| NC(=O)c1c(OCC2CC2)nn2c(C(=O)NC3Cc4ccccc4C3)ccnc12 [Compound 142, 2-(cyclopropylmethoxy)-N7-indan-2-yl-pyrazolo[1,5-a]pyrimidine-3,7-dicarboxamide] | < 50 nM |
| COCc1nn2c(C(=O)NC3CNc4ccccc4C3)ccnc2c1C(N)=O (stereo not drawn) [Compound 93, 2-(methoxymethyl)-N7-(1,2,3,4-tetrahydroquinolin-3-yl)pyrazolo[1,5-a]pyrimidine-3,7-dicarboxamide] | < 50 nM |
| Cc1cccc2c1CC(NC(=O)c1ccnc3c(C(N)=O)cnn13)C2 (stereo not drawn) [Compound 2, N7-(4-methylindan-2-yl)pyrazolo[1,5-a]pyrimidine-3,7-dicarboxamide] | 50 to 500 nM |
| NC(=O)c1cnn2c(C(=O)NC3COc4ccccc4C3)ccnc12 (stereo not drawn) [Compound 6, N7-chroman-3-ylpyrazolo[1,5-a]pyrimidine-3,7-dicarboxamide] | 50 to 500 nM |
| COCc1nn2c(C(=O)NC(C)c3ccc(F)cc3)ccnc2c1C(N)=O (stereo not drawn) [Compound 122, N7-[1-(4-fluorophenyl)ethyl]-2-(methoxymethyl)pyrazolo[1,5-a]pyrimidine-3,7-dicarboxamide] | 50 to 500 nM |

Same assay, conditions: hGPR68 IC50, HEK293T cells transiently expressing hGPR68, antagonism of pH 5.5 stimulated cAMP, 15 min

| Structure (SMILES) | IC50 |
| --- | --- |
| Cc1cnc2c(C(N)=O)c(C)nn2c1C(=O)NC1CC(F)(F)C1 [Compound 38, N7-(3,3-difluorocyclobutyl)-2,6-dimethyl-pyrazolo[1,5-a]pyrimidine-3,7-dicarboxamide] | 5000 to 50000 nM |
| NC(=O)c1c(CO)nn2c(C(=O)N[C@H]3C[C@@H](OC(F)(F)F)C3)ccnc12 [Compound 141, 2-(hydroxymethyl)-N7-[cis-3-(trifluoromethoxy)cyclobutyl]pyrazolo[1,5-a]pyrimidine-3,7-dicarboxamide] | < 50 nM |
| NC(=O)c1c(C2CC2)nn2c(C(=O)NC3CCC(F)(F)CC3)cnnc12 [Compound 156, 7-cyclopropyl-N4-(4,4-difluorocyclohexyl)pyrazolo[5,1-c][1,2,4]triazine-4,8-dicarboxamide] | 50 to 500 nM |
